One block for each compound: values may come before it.
How the values were obtained:
[1] = system: Rattus norvegicus; test: Anti-inflammatory activity in Rattus norvegicus Wistar (rat) assessed as inhibition of carrageenan-induced edema volume at 67.0 mg/kg, po measured after 60 min; type: functional; conditions: 1 h
[2] = system: Rattus norvegicus; test: Anti-inflammatory activity in Rattus norvegicus Wistar (rat) assessed as inhibition of carrageenan-induced edema volume at 67.0 mg/kg, po measured after 90 min; type: functional; conditions: 1.5 h
[3] = system: Rattus norvegicus; test: Anti-inflammatory activity in Rattus norvegicus Wistar (rat) assessed as inhibition of carrageenan-induced edema volume at 67.0 mg/kg, po measured after 30 min; type: functional; conditions: 0.5 h
[4] = system: Rattus norvegicus; test: Anti-inflammatory activity in Rattus norvegicus Wistar (rat) assessed as inhibition of carrageenan-induced edema volume at 67.0 mg/kg, po measured after 120 min; type: functional; conditions: 2 h
[5] = system: Mus musculus; test: Analgesic activity in Mus musculus (mouse) assessed as inhibition of acetic acid-induced writhing at 67 mg/kg, po pretreated 1 hr before acetic acid challenge; type: functional
[6] = system: Rattus norvegicus; test: Anti-inflammatory activity in Rattus norvegicus Wistar (rat) assessed as inhibition of carrageenan-induced edema volume at 71.9 mg/kg, po measured after 120 min; type: functional; conditions: 2 h
[7] = Prodrug conversion in acetate buffer assessed as half-life for hydrolysis at pH 5; type: physicochemical
[8] = Prodrug conversion in phosphate buffer assessed as half-life for hydrolysis at pH 7.4; type: physicochemical
[9] = system: Mus musculus; test: Analgesic activity in Mus musculus (mouse) assessed as inhibition of acetic acid-induced writhing at 71.9 mg/kg, po pretreated 1 hr before acetic acid challenge; type: functional
[10] = Prodrug conversion in acetate buffer assessed as half-life for hydrolysis at pH 4; type: physicochemical
[11] = system: Rattus norvegicus; test: Anti-inflammatory activity in Rattus norvegicus Wistar (rat) assessed as inhibition of carrageenan-induced edema volume at 71.9 mg/kg, po measured after 30 min; type: functional; conditions: 0.5 h
[12] = system: Rattus norvegicus; test: Anti-inflammatory activity in Rattus norvegicus Wistar (rat) assessed as inhibition of carrageenan-induced edema volume at 71.9 mg/kg, po measured after 90 min; type: functional; conditions: 1.5 h
[13] = Prodrug conversion in acetate buffer assessed as half-life for hydrolysis at pH 3; type: physicochemical
[14] = system: Rattus norvegicus; test: Anti-inflammatory activity in Rattus norvegicus Wistar (rat) assessed as inhibition of carrageenan-induced edema volume at 71.9 mg/kg, po measured after 60 min; type: functional; conditions: 1 h
[15] = system: Rattus norvegicus; test: Anti-inflammatory activity in Rattus norvegicus Wistar (rat) assessed as inhibition of carrageenan-induced edema volume at 67.6 mg/kg, po measured after 30 min; type: functional; conditions: 0.5 h
[16] = system: Rattus norvegicus; test: Anti-inflammatory activity in Rattus norvegicus Wistar (rat) assessed as inhibition of carrageenan-induced edema volume at 67.6 mg/kg, po measured after 90 min; type: functional; conditions: 1.5 h
[17] = system: Rattus norvegicus; test: Anti-inflammatory activity in Rattus norvegicus Wistar (rat) assessed as inhibition of carrageenan-induced edema volume at 67.6 mg/kg, po measured after 120 min; type: functional; conditions: 2 h
[18] = system: Rattus norvegicus; test: Anti-inflammatory activity in Rattus norvegicus Wistar (rat) assessed as inhibition of carrageenan-induced edema volume at 67.6 mg/kg, po measured after 60 min; type: functional; conditions: 1 h
[19] = system: Mus musculus; test: Analgesic activity in Mus musculus (mouse) assessed as inhibition of acetic acid-induced writhing at 67.6 mg/kg, po pretreated 1 hr before acetic acid challenge; type: functional
[20] = system: Mus musculus; test: Analgesic activity in Mus musculus (mouse) assessed as inhibition of acetic acid-induced writhing at 68.9 mg/kg, po pretreated 1 hr before acetic acid challenge; type: functional
[21] = system: Rattus norvegicus; test: Anti-inflammatory activity in Rattus norvegicus Wistar (rat) assessed as inhibition of carrageenan-induced edema volume at 68.9 mg/kg, po measured after 60 min; type: functional; conditions: 1 h
[22] = system: Rattus norvegicus; test: Anti-inflammatory activity in Rattus norvegicus Wistar (rat) assessed as inhibition of carrageenan-induced edema volume at 68.9 mg/kg, po measured after 120 min; type: functional; conditions: 2 h
[23] = system: Rattus norvegicus; test: Anti-inflammatory activity in Rattus norvegicus Wistar (rat) assessed as inhibition of carrageenan-induced edema volume at 68.9 mg/kg, po measured after 30 min; type: functional; conditions: 0.5 h
[24] = system: Rattus norvegicus; test: Anti-inflammatory activity in Rattus norvegicus Wistar (rat) assessed as inhibition of carrageenan-induced edema volume at 68.9 mg/kg, po measured after 90 min; type: functional; conditions: 1.5 h
[25] = system: Rattus norvegicus; test: Anti-inflammatory activity in Rattus norvegicus Wistar (rat) assessed as inhibition of carrageenan-induced edema volume at 64.7 mg/kg, po measured after 30 min; type: functional; conditions: 0.5 h
[26] = system: Rattus norvegicus; test: Anti-inflammatory activity in Rattus norvegicus Wistar (rat) assessed as inhibition of carrageenan-induced edema volume at 64.7 mg/kg, po measured after 90 min; type: functional; conditions: 1.5 h
[27] = system: Rattus norvegicus; test: Anti-inflammatory activity in Rattus norvegicus Wistar (rat) assessed as inhibition of carrageenan-induced edema volume at 64.7 mg/kg, po measured after 120 min; type: functional; conditions: 2 h
[28] = system: Mus musculus; test: Analgesic activity in Mus musculus (mouse) assessed as inhibition of acetic acid-induced writhing at 64.7 mg/kg, po pretreated 1 hr before acetic acid challenge; type: functional
[29] = system: Rattus norvegicus; test: Anti-inflammatory activity in Rattus norvegicus Wistar (rat) assessed as inhibition of carrageenan-induced edema volume at 64.7 mg/kg, po measured after 60 min; type: functional; conditions: 1 h
[30] = system: Rattus norvegicus; test: Anti-inflammatory activity in Rattus norvegicus Wistar (rat) assessed as inhibition of carrageenan-induced edema volume at 69.6 mg/kg, po measured after 120 min; type: functional; conditions: 2 h
[31] = system: Mus musculus; test: Analgesic activity in Mus musculus (mouse) assessed as inhibition of acetic acid-induced writhing at 69.6 mg/kg, po pretreated 1 hr before acetic acid challenge; type: functional
[32] = system: Rattus norvegicus; test: Anti-inflammatory activity in Rattus norvegicus Wistar (rat) assessed as inhibition of carrageenan-induced edema volume at 69.6 mg/kg, po measured after 60 min; type: functional; conditions: 1 h
[33] = system: Rattus norvegicus; test: Anti-inflammatory activity in Rattus norvegicus Wistar (rat) assessed as inhibition of carrageenan-induced edema volume at 69.6 mg/kg, po measured after 90 min; type: functional; conditions: 1.5 h
[34] = system: Rattus norvegicus; test: Anti-inflammatory activity in Rattus norvegicus Wistar (rat) assessed as inhibition of carrageenan-induced edema volume at 69.6 mg/kg, po measured after 30 min; type: functional; conditions: 0.5 h

SMILES: COc1ccc2cc(C(C)C(=O)OCC(OC(C)=O)C(OC(C)=O)C(OC(C)=O)C(/C=N/[C@@H](Cc3cnc[nH]3)C(=O)O)OC(C)=O)ccc2c1 (some centres undefined)
inhibition in vivo at 67 mg/kg [1]: 13% | inhibition in vivo at 67 mg/kg [2]: 39% | inhibition in vivo at 67 mg/kg [3]: 26% | inhibition in vivo at 67 mg/kg [4]: 58% | inhibition in vivo at 67 mg/kg [5]: 65.9%

t1/2 [7]: 57 h | t1/2 [8]: 18 h | t1/2 [10]: 115 h | t1/2 [13]: 88 h
SMILES: COc1ccc2cc(C(C)C(=O)OCC(OC(C)=O)C(OC(C)=O)C(OC(C)=O)C(/C=N/[C@@H](Cc3c[nH]c4ccccc34)C(=O)O)OC(C)=O)ccc2c1 (some centres undefined)
inhibition in vivo at 71.9 mg/kg [6]: 70% | inhibition in vivo at 71.9 mg/kg [9]: 73.7% | inhibition in vivo at 71.9 mg/kg [11]: 18% | inhibition in vivo at 71.9 mg/kg [12]: 36% | inhibition in vivo at 71.9 mg/kg [14]: 16%

SMILES: COc1ccc2cc(C(C)C(=O)OCC(OC(C)=O)C(OC(C)=O)C(OC(C)=O)C(/C=N/[C@@H](CC(=O)O)C(=O)O)OC(C)=O)ccc2c1 (some centres undefined)
inhibition in vivo at 67.6 mg/kg [15]: 20% | inhibition in vivo at 67.6 mg/kg [16]: 28% | inhibition in vivo at 67.6 mg/kg [17]: 45% | inhibition in vivo at 67.6 mg/kg [18]: 1% | inhibition in vivo at 67.6 mg/kg [19]: 75.1%

SMILES: COc1ccc2cc(C(C)C(=O)OCC(OC(C)=O)C(OC(C)=O)C(OC(C)=O)C(/C=N/[C@@H](CCC(=O)O)C(=O)O)OC(C)=O)ccc2c1 (some centres undefined)
inhibition in vivo at 68.9 mg/kg [20]: 64.1% | inhibition in vivo at 68.9 mg/kg [21]: 32% | inhibition in vivo at 68.9 mg/kg [22]: 66% | inhibition in vivo at 68.9 mg/kg [23]: 32% | inhibition in vivo at 68.9 mg/kg [24]: 53%

SMILES: COc1ccc2cc(C(C)C(=O)OCC(OC(C)=O)C(OC(C)=O)C(OC(C)=O)C(/C=N/[C@@H](CCCN)C(=O)O)OC(C)=O)ccc2c1 (some centres undefined)
inhibition in vivo at 64.7 mg/kg [25]: 24% | inhibition in vivo at 64.7 mg/kg [26]: 50% | inhibition in vivo at 64.7 mg/kg [27]: 67% | inhibition in vivo at 64.7 mg/kg [28]: 82% | inhibition in vivo at 64.7 mg/kg [29]: 32%

SMILES: COc1ccc2cc(C(C)C(=O)OCC(OC(C)=O)C(OC(C)=O)C(OC(C)=O)C(/C=N/[C@@H](Cc3ccc(O)c(O)c3)C(=O)O)OC(C)=O)ccc2c1 (some centres undefined)
inhibition in vivo at 69.6 mg/kg [30]: 73% | inhibition in vivo at 69.6 mg/kg [31]: 92.3% | inhibition in vivo at 69.6 mg/kg [32]: 41% | inhibition in vivo at 69.6 mg/kg [33]: 50% | inhibition in vivo at 69.6 mg/kg [34]: 44%
